Experimental data from ChEMBL document CHEMBL4673358 (Bioorg Med Chem Lett, 2021).
Values belong to the molecule of their own block, whether it stands above or below them. Active and inactive are the calls of the source. The rule behind the calls is not given here.

Tests used:
[1] = biological target: Tryptophan 2,3-dioxygenase (Homo sapiens, UniProt P48775); experiment: Inhibition of TDO in HEK cells; format: cell-based
[2] = biological target: T1, Indoleamine 2,3-dioxygenase 1 (Homo sapiens, UniProt P14902); experiment: Inhibition of IDO1 in human SKOV3 cells; format: cell-based, SK-OV-3
Target sequence in this assay (P14902 whole entry): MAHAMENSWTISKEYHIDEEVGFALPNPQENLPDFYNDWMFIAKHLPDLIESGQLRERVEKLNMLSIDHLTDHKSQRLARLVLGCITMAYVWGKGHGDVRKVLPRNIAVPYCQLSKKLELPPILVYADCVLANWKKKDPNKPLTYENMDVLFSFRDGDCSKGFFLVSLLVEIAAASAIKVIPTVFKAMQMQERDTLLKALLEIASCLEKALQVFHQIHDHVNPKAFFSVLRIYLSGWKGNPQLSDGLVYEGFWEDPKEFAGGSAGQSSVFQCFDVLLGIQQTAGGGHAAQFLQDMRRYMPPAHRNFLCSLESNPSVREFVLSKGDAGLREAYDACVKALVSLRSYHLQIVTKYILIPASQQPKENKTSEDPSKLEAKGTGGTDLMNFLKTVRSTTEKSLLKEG

[3] = Metabolic stability in mouse liver microsomes assessed as intrinsic clearance; format: ADME, Microsome; conditions: read-out: CLH
[4] = Metabolic stability in human liver microsomes assessed as intrinsic clearance; format: ADME, Microsome; conditions: read-out: CLH
[5] = biological target: T1, Indoleamine 2,3-dioxygenase 1; experiment: Inhibition of IDO1 in human whole blood; format: tissue-based
Target sequence in this assay (P14902 whole entry): as above

[6] = biological target: Indoleamine 2,3-dioxygenase 1 (Mus musculus) (UniProt P28776); experiment: In vivo inhibition of IDO1 in mouse assessed as reduction in LPS-induced kynurenine level at 30 mg/kg, po administered as single dose measured after 36 hrs relative to control; format: functional, organism-based
[7] = biological target: Indoleamine 2,3-dioxygenase 1 (Mus musculus) (UniProt P28776); experiment: In vivo inhibition of IDO1 in mouse assessed as reduction in kynurenine level; format: functional
[8] = Metabolic stability in human hepatocytes assessed as intrinsic clearance measured per million cells; format: ADME, cell-based, Hepatocyte; conditions: read-out: CLH
[9] = Metabolic stability in human hepatocytes assessed as half life; format: ADME, cell-based, Hepatocyte
[10] = Metabolic stability in rat hepatocytes assessed as intrinsic clearance measured per million cells; format: ADME, cell-based, Hepatocyte; conditions: read-out: CLH
[11] = Metabolic stability in rat hepatocytes assessed as half life; format: ADME, cell-based, Hepatocyte
[12] = Metabolic stability in mouse hepatocytes assessed as intrinsic clearance measured per million cells; format: ADME, cell-based, Hepatocyte; conditions: read-out: CLH
[13] = Metabolic stability in mouse hepatocytes assessed as half life; format: ADME, cell-based, Hepatocyte
[14] = Half life in rat at 10 mg/kg, po; format: ADME, organism-based; conditions: in vivo
[15] = Half life in mouse at 10 mg/kg, po; format: ADME, organism-based; conditions: in vivo
[16] = AUC(0 to 72 hrs) in rat at 10 mg/kg, po; format: ADME, organism-based; design: time < 72 hr, route oral, dose 10 mg/kg; conditions: in vivo
[17] = Cmax in rat at 10 mg/kg, po; format: ADME, organism-based; design: route oral, dose 10 mg/kg; conditions: in vivo
[18] = AUC(0 to 72 hrs) in mouse at 10 mg/kg, po; format: ADME, organism-based; design: time < 72 hr, route oral, dose 10 mg/kg; conditions: in vivo
[19] = Cmax in mouse at 10 mg/kg, po; format: ADME, organism-based; design: route oral, dose 10 mg/kg; conditions: in vivo
hERG (KCNH2) [20] = biological target: T2, hERG (KCNH2) (Homo sapiens, UniProt Q12809); experiment: Inhibition of human ERG assessed as reduction in channel tail current at 10 uM by patch clamp assay relative to control
hERG (KCNH2) [21] = biological target: T2, hERG (KCNH2); experiment: Inhibition of human ERG at 10 uM relative to control
Cytochrome P450 3A4 = Cytochrome P450 3A4 (Homo sapiens, UniProt P08684); experiment: Inhibition of CYP3A4 (unknown origin); format: ADME
[22] = Plasma protein binding in mouse; format: ADME, cell-free; conditions: read-out: PPB (converted)
[23] = Plasma protein binding in human; format: ADME, cell-free; conditions: read-out: PPB
[24] = biological target: T1, Indoleamine 2,3-dioxygenase 1; experiment: Binding affinity to IDO1 (unknown origin) assessed as change in melting temperature at 5 uM by thermal shift assay
Target sequence in this assay (P14902 whole entry, looked up): as the sequence (P14902 whole entry) above

[25] = biological target: Indoleamine 2,3-dioxygenase 1 (Mus musculus, UniProt P28776); experiment: Inhibition of mouse IDO1 expressed in HEK cells; format: cell-based
Cytochrome P450 2C9 = Cytochrome P450 2C9 (Homo sapiens, UniProt P11712); experiment: Inhibition of CYP2C9 (unknown origin); format: ADME
[26] = AUC(0 to 24 hrs) in mouse at 10 mg/kg, po; format: ADME, organism-based; design: time < 24 hr, route oral, dose 10 mg/kg; conditions: in vivo

Tryptophan 2,3-dioxygenase, sequence (P48775 whole entry): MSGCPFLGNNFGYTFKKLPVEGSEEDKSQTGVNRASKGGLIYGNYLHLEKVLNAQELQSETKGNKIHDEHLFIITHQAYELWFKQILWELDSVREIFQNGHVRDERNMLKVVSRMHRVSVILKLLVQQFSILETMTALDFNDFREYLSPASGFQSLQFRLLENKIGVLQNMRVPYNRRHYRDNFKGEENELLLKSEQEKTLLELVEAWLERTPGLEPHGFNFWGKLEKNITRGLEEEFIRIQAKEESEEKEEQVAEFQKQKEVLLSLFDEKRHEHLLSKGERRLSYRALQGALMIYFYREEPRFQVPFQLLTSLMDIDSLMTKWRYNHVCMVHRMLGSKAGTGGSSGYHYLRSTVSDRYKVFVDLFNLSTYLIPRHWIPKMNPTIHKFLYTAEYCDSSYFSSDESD
T2 sequence (Q12809 whole entry): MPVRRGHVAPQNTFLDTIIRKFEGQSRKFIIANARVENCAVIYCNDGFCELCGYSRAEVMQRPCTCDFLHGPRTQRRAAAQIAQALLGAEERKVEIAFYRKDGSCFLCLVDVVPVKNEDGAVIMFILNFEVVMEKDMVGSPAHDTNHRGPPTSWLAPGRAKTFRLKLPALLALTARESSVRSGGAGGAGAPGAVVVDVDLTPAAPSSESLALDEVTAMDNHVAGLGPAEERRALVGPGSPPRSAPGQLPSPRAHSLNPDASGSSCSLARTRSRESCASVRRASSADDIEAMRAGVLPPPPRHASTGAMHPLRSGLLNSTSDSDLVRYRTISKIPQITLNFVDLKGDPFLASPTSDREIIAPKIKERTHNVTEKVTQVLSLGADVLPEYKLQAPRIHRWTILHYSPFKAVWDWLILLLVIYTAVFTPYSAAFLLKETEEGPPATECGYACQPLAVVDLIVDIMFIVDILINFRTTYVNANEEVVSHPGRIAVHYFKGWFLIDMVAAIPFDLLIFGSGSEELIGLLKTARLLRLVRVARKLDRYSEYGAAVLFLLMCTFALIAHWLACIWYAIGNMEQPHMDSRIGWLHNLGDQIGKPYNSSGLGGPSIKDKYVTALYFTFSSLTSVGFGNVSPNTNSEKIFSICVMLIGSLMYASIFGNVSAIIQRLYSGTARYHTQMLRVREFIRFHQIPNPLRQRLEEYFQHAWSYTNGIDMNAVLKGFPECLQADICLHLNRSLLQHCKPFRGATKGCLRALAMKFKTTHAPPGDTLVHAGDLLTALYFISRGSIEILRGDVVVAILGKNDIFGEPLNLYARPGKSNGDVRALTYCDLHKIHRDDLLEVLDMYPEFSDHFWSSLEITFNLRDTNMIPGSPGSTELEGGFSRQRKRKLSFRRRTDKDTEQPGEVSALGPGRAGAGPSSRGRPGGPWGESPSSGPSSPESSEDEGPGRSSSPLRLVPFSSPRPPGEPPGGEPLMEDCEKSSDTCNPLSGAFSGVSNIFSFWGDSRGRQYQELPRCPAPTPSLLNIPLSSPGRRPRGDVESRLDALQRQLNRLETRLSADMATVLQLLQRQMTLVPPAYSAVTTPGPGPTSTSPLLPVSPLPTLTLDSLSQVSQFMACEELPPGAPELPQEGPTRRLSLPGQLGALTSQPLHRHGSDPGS
Indoleamine 2,3-dioxygenase 1 (Mus musculus), sequence (P28776 whole entry, looked up): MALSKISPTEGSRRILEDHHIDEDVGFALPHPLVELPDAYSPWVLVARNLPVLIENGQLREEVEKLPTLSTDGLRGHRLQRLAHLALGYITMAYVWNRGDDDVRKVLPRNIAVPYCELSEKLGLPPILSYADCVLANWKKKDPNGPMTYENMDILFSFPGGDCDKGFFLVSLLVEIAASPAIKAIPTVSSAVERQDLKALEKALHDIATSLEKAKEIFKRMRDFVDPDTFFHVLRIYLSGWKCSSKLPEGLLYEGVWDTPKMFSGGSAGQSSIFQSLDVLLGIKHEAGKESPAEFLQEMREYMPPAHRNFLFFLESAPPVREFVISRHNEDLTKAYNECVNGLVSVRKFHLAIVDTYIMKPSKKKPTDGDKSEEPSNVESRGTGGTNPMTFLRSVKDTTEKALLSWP
Indoleamine 2,3-dioxygenase 1 (Mus musculus, UniProt P28776), sequence (P28776 whole entry): as the sequence (P28776 whole entry, looked up) above
Cytochrome P450 3A4, sequence (P08684 whole entry): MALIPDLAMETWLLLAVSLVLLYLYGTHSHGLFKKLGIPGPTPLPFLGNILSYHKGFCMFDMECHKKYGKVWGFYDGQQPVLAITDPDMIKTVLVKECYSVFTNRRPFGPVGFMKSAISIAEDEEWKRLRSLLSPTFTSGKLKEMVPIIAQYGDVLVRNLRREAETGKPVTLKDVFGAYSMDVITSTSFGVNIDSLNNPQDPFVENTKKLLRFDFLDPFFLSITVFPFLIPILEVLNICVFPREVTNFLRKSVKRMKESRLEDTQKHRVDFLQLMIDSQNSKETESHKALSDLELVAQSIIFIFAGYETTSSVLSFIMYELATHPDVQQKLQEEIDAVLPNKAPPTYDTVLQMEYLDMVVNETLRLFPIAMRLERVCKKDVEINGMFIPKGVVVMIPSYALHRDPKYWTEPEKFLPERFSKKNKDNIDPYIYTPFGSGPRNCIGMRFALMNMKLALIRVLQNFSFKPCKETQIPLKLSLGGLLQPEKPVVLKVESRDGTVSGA
Cytochrome P450 2C9, sequence (P11712 whole entry): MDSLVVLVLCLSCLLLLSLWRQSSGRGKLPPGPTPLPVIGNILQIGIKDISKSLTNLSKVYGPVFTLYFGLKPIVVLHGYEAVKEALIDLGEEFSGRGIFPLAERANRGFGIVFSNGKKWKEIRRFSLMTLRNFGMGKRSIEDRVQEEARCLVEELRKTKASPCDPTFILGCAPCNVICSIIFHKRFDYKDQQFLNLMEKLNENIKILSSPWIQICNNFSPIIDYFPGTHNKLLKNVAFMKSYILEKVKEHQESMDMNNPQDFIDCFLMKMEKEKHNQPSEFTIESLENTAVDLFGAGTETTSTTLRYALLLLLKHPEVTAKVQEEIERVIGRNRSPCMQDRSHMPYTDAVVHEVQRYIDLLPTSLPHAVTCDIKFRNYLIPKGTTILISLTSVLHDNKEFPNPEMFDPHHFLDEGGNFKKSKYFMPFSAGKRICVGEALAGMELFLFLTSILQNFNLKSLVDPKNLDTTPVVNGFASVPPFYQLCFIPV

SMILES: O=C(CN1CCC2(CC1)COc1cc(C(F)(F)F)ccc12)Nc1ccc(Cl)cc1
IC50 [1]: 25700 nM
IC50 [2]: 260 nM

SMILES: CC(C(=O)Nc1ccc(Cl)cc1)N1CCC2(CC1)COc1cc(C(F)(F)F)ccc12 (racemic)
microsomal CLint [3]: 56 µL/min/mg
microsomal CLint [4]: 11 µL/min/mg
IC50 [5]: 1320 nM
IC50 [1]: 35600 nM
IC50 [2]: 22 nM

IC50 [1]: 42800 nM
IC50 [2]: 670 nM
SMILES: O=C(CN1CCC2(CCc3ccccc32)CC1)Nc1ccc(Cl)cc1

microsomal CLint [3]: 30 µL/min/mg
microsomal CLint [4]: 5.9 µL/min/mg
IC50 [5]: 320 nM
IC50 [1]: 26400 nM
IC50 [2]: 7 nM
SMILES: CC[C@H](C(=O)Nc1ccc(Cl)cn1)[C@H]1CC[C@]2(CC1)COc1cc(C(F)(F)F)ccc12

IC50 [5]: 1700 nM
IC50 [2]: 32 nM
SMILES: O=C(Nc1ccc(Cl)cc1)C(=O)N1CCC2(CC1)COc1cc(C(F)(F)F)ccc12

SMILES: CC(C)(C(=O)Nc1ccc(Cl)cc1)N1CCC2(CC1)COc1cc(C(F)(F)F)ccc12
microsomal CLint [3]: 117 µL/min/mg
microsomal CLint [4]: 34 µL/min/mg
IC50 [1]: 47900 nM
IC50 [2]: 11 nM

microsomal CLint [3]: 9.5 µL/min/mg
microsomal CLint [4]: 1.4 µL/min/mg
IC50 [1]: 7100 nM
IC50 [2]: 8.3 nM
SMILES: CC(C(=O)Nc1ccc(Cl)cc1)C1CCC2(CC1)c1ccc(C(F)(F)F)cc1CN2C (stereo not drawn)

microsomal CLint [3]: 4.5 µL/min/mg
microsomal CLint [4]: 3.7 µL/min/mg
IC50 [1]: 10500 nM
IC50 [2]: 69 nM
SMILES: C[C@@H](C(=O)Nc1ccc(Cl)cc1)[C@H]1CC[C@]2(CC1)COc1cc(C(F)(F)F)ccc12

microsomal CLint [3]: 39 µL/min/mg
microsomal CLint [4]: 22 µL/min/mg
IC50 [5]: 360 nM
IC50 [1]: 11800 nM
IC50 [2]: 12 nM
SMILES: CCC(C(=O)Nc1ccc(Cl)cc1)N1CCC2(CCOc3cc(C(F)(F)F)ccc32)CC1 (stereo not drawn)

microsomal CLint [3]: 92 µL/min/mg
microsomal CLint [4]: 43 µL/min/mg
IC50 [1]: 10300 nM
IC50 [2]: 6.6 nM
SMILES: C[C@@H](C(=O)Nc1ccc(Cl)cc1)[C@H]1CC[C@@]2(CC1)COc1cc(C(F)(F)F)ccc12

SMILES: CC[C@H](C(=O)Nc1ccc(Cl)cc1)N1CCC2(CC1)COc1cc(C(F)(F)F)ccc12 (stereo in doubt)
microsomal CLint [3]: 48 µL/min/mg
microsomal CLint [4]: 17 µL/min/mg
IC50 [1]: 15500 nM
IC50 [2]: 109 nM

microsomal CLint [3]: 668 µL/min/mg
microsomal CLint [4]: 326 µL/min/mg
IC50 [1]: 39000 nM
IC50 [2]: 39 nM
SMILES: CC(C(=O)Nc1ccc(Cl)cc1)N1CCC2(CCc3ccccc32)CC1 (racemic)

IC50 [5]: 1600 nM
IC50 [2]: 15 nM
SMILES: O=C(Nc1ccc(Cl)cc1)C(=O)N1CCC(c2ccnc3ccc(F)cc23)CC1

inhibition [6]: Active
inhibition [7]: inactive
hepatocyte CLint [8]: 4 µL/min/1e6 cells
half-life [9]: 2.92 h
hepatocyte CLint [10]: 5.6 µL/min/1e6 cells
half-life [11]: 2.08 h
hepatocyte CLint [12]: 1.7 µL/min/1e6 cells
half-life [13]: 6.65 h
half-life [14]: 49 h
half-life [15]: 115 h
AUC(0-t) at 72 h [16]: 18.2 µM·h
Cmax [17]: 580 nM
AUC(0-t) at 72 h [18]: 105 µM·h
Cmax [19]: 2880 nM
IC50 (Cytochrome P450 3A4): 3100 nM
fraction unbound [22]: 0.005
fraction unbound [23]: 0.001
ΔTm [24]: 17.8 °C
IC50 [25]: 7.8 nM
microsomal CLint [3]: < 1 µL/min/mg
microsomal CLint [4]: < 1 µL/min/mg
IC50 [5]: 52 nM
IC50 [1]: 7300 nM
IC50 [2]: 3.9 nM
SMILES: C[C@H](C(=O)Nc1ccc(Cl)cc1)[C@H]1CC[C@]2(CC1)COc1cc(C(F)(F)F)ccc12
inhibition at 10 µM (hERG (KCNH2) [20]): 44%
inhibition at 10 µM (hERG (KCNH2) [21]): 67%

microsomal CLint [3]: 3.5 µL/min/mg
microsomal CLint [4]: 1.6 µL/min/mg
IC50 [1]: 7100 nM
IC50 [2]: 5.4 nM
SMILES: C[C@H](C(=O)Nc1ccc(Cl)cc1)[C@H]1CC[C@]2(CC1)COc1nc(C(F)(F)F)ccc12

SMILES: CC[C@@H](C(=O)Nc1ccc(Cl)cc1)N1CCC2(CC1)COc1cc(C(F)(F)F)ccc12 (stereo in doubt)
inhibition at 10 µM (hERG (KCNH2) [21]): 85%
IC50 (Cytochrome P450 2C9): 5000 nM
ΔTm [24]: 15.2 °C
IC50 [25]: 38 nM
microsomal CLint [3]: 53 µL/min/mg
microsomal CLint [4]: 22 µL/min/mg
IC50 [5]: 360 nM
IC50 [1]: 11400 nM
IC50 [2]: 12 nM

SMILES: O=C(Nc1ccc(Cl)cc1)C(CC1CC1)N1CCC2(CC1)COc1cc(C(F)(F)F)ccc12 (stereo not drawn)
microsomal CLint [3]: 14 µL/min/mg
microsomal CLint [4]: 13 µL/min/mg
IC50 [5]: 300 nM
IC50 [1]: 15900 nM
IC50 [2]: 4.4 nM

microsomal CLint [3]: 19 µL/min/mg
microsomal CLint [4]: 3 µL/min/mg
IC50 [1]: 18400 nM
IC50 [2]: 7.9 nM
SMILES: C[C@H](C(=O)Nc1ccc(Cl)cc1)[C@H]1CC[C@]2(CC1)COc1ncc(C(F)(F)F)cc12

microsomal CLint [3]: 193 µL/min/mg
microsomal CLint [4]: 67 µL/min/mg
IC50 [5]: 51 nM
IC50 [1]: 7800 nM
IC50 [2]: 5.1 nM
SMILES: C[C@H](C(=O)Nc1ccc(Cl)cc1)[C@H]1CC[C@@]2(CC1)COc1cc(C(F)(F)F)ccc12

inhibition [6]: Active
hepatocyte CLint [8]: 4.5 µL/min/1e6 cells
half-life [9]: 2.55 h
half-life [15]: 2.5 h
AUC(0-t) at 24 h [26]: 9.3 µM·h
Cmax [19]: 2000 nM
SMILES: C[C@@H](C(=O)Nc1ccc(Cl)cc1)[C@H]1CC[C@@H](c2ccnc3ccc(F)cc32)CC1

SMILES: O=C(Nc1ccc(Cl)cc1)C(CCO)N1CCC2(CC1)COc1cc(C(F)(F)F)ccc12 (stereo not drawn)
IC50 [1]: 9500 nM
IC50 [2]: 86 nM
